From patent US20100168228A1, “NOVEL CHEMOTHERAPEUTIC AGENTS AGAINST INFLAMMATION AND CANCER” (RELIANCE LIFE SCIENCES PVT. LTD., priority 2006, published 2010)

Key:
NF-κB = NF-κB activation assay, U937; assay type: cell-based, human; settings: U937, 15 μM 3 h, 0.1 nM TNF 30 min
Procedure: FIG. 4: Effect of CAMVE on NF-κB activation in different cell lines. A. HeLa, MCF-7, U937, were incubated at 37° C. for 3 h with 15 μM dose of CAMVE and then stimulated with 0.1 nM TNF for 30 min. After these treatments, nuclear extracts were prepared and assayed for NF-κB using BD Transfactor ELISA method. B. RAW 264.7 cells pretreated with indicated doses of CAMVE were stimulated with 100 ng/ml LPS for 30 min and assayed for NF-κB activation.
Cell pellet was resuspended in lysis buffer (10 mM HEPES, pH 7.9, 1.5 mM MgCl2, 10 mM KCl, 1 mM PMSF, 1 mMDTT, 0.5% NP 40, 0.1 mM EGTA and 0.1 mM EDTA) and allowed to swell on ice for 15 min, followed by centrifugation at 3300×g for 20 min. The cell pellet was resuspended in a volume of lysis buffer equal to the cell pellet volume. The cell suspension was slowly drawn down into a syringe and ejected the content in a single stroke. Disrupted cells were incubated for 15 min on ice, and the disrupted cell suspension was centrifuged at 10,000×g for 20 min at 4° C. […]
The assay was performed by using wells coated with oligonucleotides having the consensus DNA binding sites for the specific transcription factors. […] Bound transcription factor was detected by a specific Primary Antibody. […] After addition of the substrate, the Absorbance was recorded at 655 nm.

U937 = test: Cytotoxicity (MTT) in different human tumor cell lines; assay type: cell-based; settings: 30 μM, 72 h
Procedure: FIG. 9: CAMVE induces differential cytotoxicity in different human tumor cell lines. Different human tumor cell lines were cultured either in the presence or absence of CAMVE (30 μM) for 72 h. The MTT assay was done and absorbance taken at 570 nm. The result indicated are mean O.D. of triplicate culture.
Cytotoxicity was assayed by the modified tetrazolium salt 3-(4,5-dimethylthiazol-2-yl)-2,5-diphenyltetrazolium bromide (MTT) assay as described by Plumb, J A et al. (Cancer Res. 1989 Aug. 15; 49(16):4435-4440).

COX-2 = COX-2 protein expression (ELISA); assay type: cell-based
Procedure: FIG. 6: Effect of CAMVE on TNF or LPS induced COX-2 expression. Cells were pretreated with indicated concentrations of CAMVE for 3 h and then stimulated with either TNF (0.1 nM) or SA-LPS (100 ng/ml) for 12 h. After harvesting the treated cells, the cellular lysates were checked for COX-2 protein expression by an enzyme immunoassay as described in the “Materials and Methods”.
Quantitative detection of Cox 2 protein expression by activated cells was done by an enzyme-linked immunosorbent sandwich assay using Zymed COX-2 ELISA kit. 1×10^7 cells were treated with different concentrations of CAMVE and stimulator and incubated at 37° C. for 12 hrs. […] The protein concentrations of the supernatants were measured by Bradford assay (Anal. Biochem. 72:248-254 (1976). 200 μg/100 μl of the protein was assayed per sample according to the kit protocol. Briefly, 100 μl of the sample and the standard were put in the pre antibody coated wells and incubated at 1 h at 37° C. After three washes 100 μl of the HRP conjugated antibody was added and incubated for 30 m is at 4° C. After washing, […] of the TMB substrate was added and incubated for 30 min at room temperature in dark. The reaction was stopped and the absorbance was read at 450 nm.

## COC(=O)c1ccc(OC(=O)/C=C/c2ccc(O)c(O)c2)c(OC)c1 [compound 1, Methyl 4-{[(2E)-3-(3,4-dihydroxyphenyl)prop-2-enoyl]oxy}-3-methoxybenzoate]
NF-κB
  TNF-induced NF-κB activation: blocks TNF-induced NF-κB activation
U937
  CAMVE mediated cell death (MTT), sensitivity among tumor cell lines: most sensitive to CAMVE treatment
COX-2; CAMVE alone
  COX-2 protein induction by compound alone: did not show any induction of COX 2 protein
COX-2; pretreated 3 h, TNF 0.1 nM or SA-LPS 100 ng/ml 12 h
  TNF or LPS induced COX-2 protein expression: decreased with increasing concentration of CAMVE treatment
